Reference: US4659712A, “Fodder additive and a process for the preparation” (Richter Gedeon Vegyeszeti Gyar Rt., priority 1984, dated 1987)
“And” between values parts separate entries of the source, which are not always exact repeats. Equal entries are not always repeated. “Also recorded” adds a separate entry of the source.

Columns and labels:
[1] = Quinoxaline-2-carboxylic acid (Carbadox metabolite) residue in pig muscle (ham, chop), liver and kidney after flumecinol treatment; type: in vivo, pigs; design: key to amount of quinoxaline-2-carboxylic acid / quinoxaline-2-carboxylic acid content of the muscle tissue / quinoxaline-2-carboxylic acid content of the liver / quinoxaline-2-carboxylic acid content of the kidney: .0.: no detectable amount; conditions: for quinoxaline-2-carboxylic acid content of the kidney / quinoxaline-2-carboxylic acid content of the liver / quinoxaline-2-carboxylic acid content of the muscle tissue: average, n = 3; for amount of quinoxaline-2-carboxylic acid: individual animal
Experimental: (§1) Tests were carried out at a large-scale pig farm, where 25 mg/kg of body weight of Carbadox admixed with the fodder of the pigs were administered to pigs having a live weight of 40 kg. From a population fed with this fodder 27 animals, each weighing exactly 40 kg, were selected, by weighing them separately. The selected animals were railed off in a place suitable for further tests. From this time on (zero time) the animals were given the same fodder as before, except Carbadox.
(§2) The 27 animals were divided into three groups as follows:
(§3) Group I: 12 animals (ser. Nos. from 1 to 12) slaughtering: three animals each when starting the experiment (0 time) and on the 1st, 5th and 15th days (positive control group) Group II: 9 amimals (ser. Nos. from 13 to 21) treatment: a single 40 mg/kg of body weight dose of flumecinol at zero time. slaughtering: three animals each on the 1st, 5th and 15th days (group treated with a single dose of flumecinol) Group III: 6 animals (ser. Nos. 22 to 27) treatment: 40 mg/kg of body weight of flumecinol for three days, at zero time and on the 1st and 2nd day slaughtering: three animals each on the 5th and 15th days (group treated with flumecinol three times) Flumecinol is available as a micropellet containing 19.02% of active ingredient. From this and a 1% starch hydrolysate a suspension is prepared, containing 40 mg of flumecinol per 1 ml (dose used for one kg of body weight). The active compound was administered 8 o'clock in the morning, without previous fasting, through a stomach tube, in order to ensure exact conditions for the experiments. The animals were killed and samples were taken from 8 to 11 o'clock in the morning, whereupon the samples were transported into the analytical laboratory within one hour, under cooling.
(§4) Quinoxaline-2-carboxylic acid (a metabolite of Carbadox) was determined in the chop, liver and kidney tissues of three animals from each group. Each muscle and liver sample was subjected to organoleptic examination also (boiling test).
The quantity of quinoxaline-2-carboxylic acid was determined essentially following the method described in the USDA Chemistry Laboratory Guidebook (5007 Determination of Carbadox):
Following the alkaline hydrolysis of the muscle, liver and kidney samples, the hydrolysates were strongly acidified and the quinoxaline-2-carboxylic acid was extracted with ethyl acetate. The pH of the ethyl acetate extract was adjusted to 6 with a citric acid buffer, whereupon the mixture was extracted with benzene. In the next step the acid was esterified with a mixture of n-propanol and sulfuric acid, to yield propyl quinoxaline-2-carboxylate. The quantity of the latter compound was determined (after purification by thin layer chromatography) by gas chromatography. This cumbersome test procedure was always performed together with a […] control sample to which a known amount (0.2 μg-1.0 μg) of quinoxaline-2-carboxylic acid (standard) was added. The percentage of the active ingredient recovered from this sample was taken into account when calculating the residual active substance amount. In this way the error of the process was eliminated.
The test results, if not otherwise indicated, are given in μg/kg.
The quantity of quinoxaline-2-carboxylic acid in the above-specified slaughtering times is shownn in Table 1. The tests were carried out on three animals and Table 1 contains the results obtained on the individual animals. The results were also statistically evaluated for the various sorts of tissues, although in this specific case this was not really necessary, since according to the valid prescriptions the products of animal origin should not contain Carbadox at all, i.e. the limit is zero. Therefore, we considered it more important to determine when the animal tissues become entirely Carbadox-free, than to observe the differences among the tissues of the various groups of animals in the time when they were killed.

[2] = Organoleptic examination (boiling test) of muscle and liver tissues of pigs treated with Carbadox and flumecinol; type: in vivo; design: key to visual observation / organoleptic (odor) score: 1: negative; 2: slight strange (indeterminable) odor; 3: some strange (slight medicamentlike) odor; 4: definite strange (more expressed medicament) odor; conditions: for visual observation / organoleptic (odor) score: individual animal
Experimental: as §1, §2, §3, §4

[3] = system: polysubstrate monooxygenase enzyme system of the liver; assay: Induction of the polysubstrate monooxygenase enzyme system of the liver
[4] = one treatment 40 mg/kg, 1st day
[5] = one treatment 40 mg/kg, 1st day, chop
[6] = one treatment 40 mg/kg, 1st day, ham
[7] = one treatment 40 mg/kg, 5th day
[8] = one treatment 40 mg/kg, 5th day, chop
[9] = one treatment 40 mg/kg, 5th day, ham
[10] = one treatment 40 mg/kg, 15th day
[11] = one treatment 40 mg/kg, 15th day, chop
[12] = one treatment 40 mg/kg, 15th day, ham
[13] = one treatment 40 mg/kg, 1st day, liver
[14] = one treatment 40 mg/kg, 5th day, liver
[15] = one treatment 40 mg/kg, 15th day, liver
[16] = three treatments 40 mg/kg, 5th day
[17] = three treatments 40 mg/kg, 5th day, chop
[18] = three treatments 40 mg/kg, 5th day, ham
[19] = three treatments 40 mg/kg, 15th day
[20] = three treatments 40 mg/kg, 15th day, chop
[21] = three treatments 40 mg/kg, 15th day, ham
[22] = three treatments 40 mg/kg, 5th day, liver
[23] = three treatments 40 mg/kg, 15th day, liver

Structure (SMILES): CCC(O)(c1ccccc1)c1cccc(C(F)(F)F)c1 (centres unmarked) [flumecinol, 1-(3-trifluoromethylphenyl)-1-(phenyl)-propan-1-ol]
- residue in muscle tissues and kidney ([1]; 40 mg/kg daily for three subsequent days, 5th day): free of residue on the 5th day
- residue in kidney (so in the source) ([1]; 40 mg/kg daily for three subsequent days, 15th day): free of residue on the 15th day
- residual quinoxaline-2-carboxylic acid in muscle ([1]; 5th day after termination of Carbadox, one or three treatments): no residual quinoxaline-2-carboxylic acid could be detected
- residual Carbadox in muscle vs. control ([1]; Group II, one dose, 24 hours after treatment): significantly lower than in the control animals slaughtered at the same time
- residue in the kidney ([1]; addition in three subsequent days, kidney, 5th and 15th day): no residue was detected either on the 5th or on the 15th day
- quinoxaline-2-carboxylic acid elimination from the muscle tissue ([1]; flumecinol treatment, muscle): significant acceleration of quinoxaline-2-carboxylic acid elimination from the muscle tissue
- quinoxaline-2-carboxylic acid content of the kidney [1, 4]: 30.67 µg/kg
- quinoxaline-2-carboxylic acid content of the liver [1, 4]: 64.67 µg/kg
- quinoxaline-2-carboxylic acid content of the muscle tissue [1, 5]: 5.33 µg/kg
- quinoxaline-2-carboxylic acid content of the muscle tissue [1, 6]: 1.33 µg/kg
- quinoxaline-2-carboxylic acid content of the muscle tissue ([1]; one treatment 40 mg/kg, 1st day, total): 3.33 µg/kg
- quinoxaline-2-carboxylic acid content of the kidney [1, 7]: 10.00 µg/kg
- quinoxaline-2-carboxylic acid content of the liver [1, 7]: 12.00 µg/kg
- quinoxaline-2-carboxylic acid content of the muscle tissue [1, 8]: .0.
- quinoxaline-2-carboxylic acid content of the muscle tissue [1, 9]: .0.
- quinoxaline-2-carboxylic acid content of the muscle tissue ([1]; one treatment 40 mg/kg, 5th day, total): .0.
- quinoxaline-2-carboxylic acid content of the kidney [1, 10]: .0.
- quinoxaline-2-carboxylic acid content of the liver [1, 10]: 7.33 µg/kg
- quinoxaline-2-carboxylic acid content of the muscle tissue [1, 11]: .0.
- quinoxaline-2-carboxylic acid content of the muscle tissue [1, 12]: .0.
- quinoxaline-2-carboxylic acid content of the muscle tissue ([1]; one treatment 40 mg/kg, 15th day, total): .0.
- amount of quinoxaline-2-carboxylic acid [1, 5]: 4 µg/kg and 6 µg/kg
- amount of quinoxaline-2-carboxylic acid [1, 6]: 4 µg/kg
- amount of quinoxaline-2-carboxylic acid ([1]; one treatment 40 mg/kg, 1st day, ham, symbol): .0.
- amount of quinoxaline-2-carboxylic acid ([1]; one treatment 40 mg/kg, 1st day, kidney): 38 µg/kg and 30 µg/kg and 24 µg/kg
- amount of quinoxaline-2-carboxylic acid [1, 13]: 58 µg/kg and 64 µg/kg and 72 µg/kg
- amount of quinoxaline-2-carboxylic acid [1, 8]: .0.
- amount of quinoxaline-2-carboxylic acid [1, 9]: .0.
- amount of quinoxaline-2-carboxylic acid ([1]; one treatment 40 mg/kg, 5th day, kidney): 10 µg/kg and 8 µg/kg and 12 µg/kg
- amount of quinoxaline-2-carboxylic acid [1, 14]: 10 µg/kg and 12 µg/kg and 14 µg/kg
- amount of quinoxaline-2-carboxylic acid [1, 11]: .0.
- amount of quinoxaline-2-carboxylic acid [1, 12]: .0.
- amount of quinoxaline-2-carboxylic acid ([1]; one treatment 40 mg/kg, 15th day, kidney): .0.
- amount of quinoxaline-2-carboxylic acid [1, 15]: 8 µg/kg and 6 µg/kg
- metabolite residue in liver ([1]; single 40 mg/kg dose, liver, 15th day, 40 mg/kg): can be detected even on the 15th day; also recorded: could be still detected on the 15th day
- amount of quinoxaline-2-carboxylic acid in liver, decrease ([1]; single 40 mg/kg dose, liver, each measuring point): significant decrease in the amount of quinoxaline-2-carboxylic acid at each measuring point
- residue in the kidney vs. control ([1]; single dose, kidney, 1st and 5th days): essentially identical with the values obtained in the control group
- residue in the kidney ([1]; single dose, kidney, 15th day): no reside can be detected
- metabolite residue in liver, time of detection ([1]; three subsequent treatments, liver): a metabolite residue can be identified on the 5th day only
- metabolite residue in liver vs. control and single dose ([1]; three subsequent treatments, liver, 5th day): substantially lower amount than in the control animals or in the group treated with a single dose of flumecinol
- quinoxaline-2-carboxylic acid content of the kidney [1, 16]: .0.
- quinoxaline-2-carboxylic acid content of the liver [1, 16]: 6.00 µg/kg
- quinoxaline-2-carboxylic acid content of the muscle tissue [1, 17]: .0.
- quinoxaline-2-carboxylic acid content of the muscle tissue [1, 18]: .0.
- quinoxaline-2-carboxylic acid content of the muscle tissue ([1]; three treatments 40 mg/kg, 5th day, total): .0.
- quinoxaline-2-carboxylic acid content of the kidney [1, 19]: .0.
- quinoxaline-2-carboxylic acid content of the liver [1, 19]: .0.
- quinoxaline-2-carboxylic acid content of the muscle tissue [1, 20]: .0.
- quinoxaline-2-carboxylic acid content of the muscle tissue [1, 21]: .0.
- quinoxaline-2-carboxylic acid content of the muscle tissue ([1]; three treatments 40 mg/kg, 15th day, total): .0.
- amount of quinoxaline-2-carboxylic acid [1, 17]: .0.
- amount of quinoxaline-2-carboxylic acid [1, 18]: .0.
- amount of quinoxaline-2-carboxylic acid ([1]; three treatments 40 mg/kg, 5th day, kidney): .0.
- amount of quinoxaline-2-carboxylic acid [1, 22]: 4 µg/kg and 6 µg/kg and 8 µg/kg
- amount of quinoxaline-2-carboxylic acid [1, 20]: .0.
- amount of quinoxaline-2-carboxylic acid [1, 21]: .0.
- amount of quinoxaline-2-carboxylic acid ([1]; three treatments 40 mg/kg, 15th day, kidney): .0.
- amount of quinoxaline-2-carboxylic acid [1, 23]: .0.
- unpleasant odor released in the tissues by Carbadox administration ([2]; flumecinol treatment): eliminates the unpleasant odor
- visual observation / organoleptic (odor) score [2, 5]: 1
- visual observation / organoleptic (odor) score [2, 6]: 1
- visual observation / organoleptic (odor) score [2, 13]: 3
- visual observation / organoleptic (odor) score [2, 8]: 1
- visual observation / organoleptic (odor) score [2, 9]: 1
- visual observation / organoleptic (odor) score [2, 14]: 2
- visual observation / organoleptic (odor) score [2, 11]: 1
- visual observation / organoleptic (odor) score [2, 12]: 1
- visual observation / organoleptic (odor) score [2, 15]: 1
- elimination of flumecinol from the tissue of pigs ([2]; pigs): rapidly eliminated from the tissue of pigs
- undesired effects detected organoleptically ([2]; pigs): no undesired effects which could be detected organoleptically
- visual observation / organoleptic (odor) score [2, 17]: 1
- visual observation / organoleptic (odor) score [2, 18]: 1
- visual observation / organoleptic (odor) score [2, 22]: 1
- visual observation / organoleptic (odor) score [2, 20]: 1
- visual observation / organoleptic (odor) score [2, 21]: 1
- visual observation / organoleptic (odor) score [2, 23]: 1
- induction of the polysubstrate monooxygenase enzyme system [3]: specific inductor of the polysubstrate monooxygenase enzyme system
